What was measured:
[1] = biological target: T1, human adenosine A2a receptor (Homo sapiens, UniProt P29274); assay: Adenosine A2a Receptor Functional Assay (A2AGAL2); type: cell-based; conditions: CHO-K1 cells, cAMP inducible beta-galactosidase reporter, 15 nM NECA agonist challenge
T1 construct: expressed in transfected cells; host or cells: CHO-K1
Procedure, shortened: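 Antagonist mode in CHO-K1 cells expressing human A2a with a cAMP-inducible β-galactosidase reporter (10K cells/well, cultured 2 days). 11-point compound curves preincubated ~15 min at room temperature in Ham's F-12/0.1% BSA, then 15 nM NECA challenge, 5.5–6 h at 37 °C. Colorimetric β-gal read at 405 nm; IC/EC50 fitted.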

[2] = biological target: T2, human A2a adenosine receptor (Homo sapiens, UniProt P29274); assay: Ligand Binding Assay for Adenosine A2a Receptor (A2A-B); conditions: HEK293 plasma membrane, radioligand [3H]CGS21680
T2 construct: purchased PerkinElmer RB-HA2a; host or cells: HEK293
T2 sequence (P29274 whole entry): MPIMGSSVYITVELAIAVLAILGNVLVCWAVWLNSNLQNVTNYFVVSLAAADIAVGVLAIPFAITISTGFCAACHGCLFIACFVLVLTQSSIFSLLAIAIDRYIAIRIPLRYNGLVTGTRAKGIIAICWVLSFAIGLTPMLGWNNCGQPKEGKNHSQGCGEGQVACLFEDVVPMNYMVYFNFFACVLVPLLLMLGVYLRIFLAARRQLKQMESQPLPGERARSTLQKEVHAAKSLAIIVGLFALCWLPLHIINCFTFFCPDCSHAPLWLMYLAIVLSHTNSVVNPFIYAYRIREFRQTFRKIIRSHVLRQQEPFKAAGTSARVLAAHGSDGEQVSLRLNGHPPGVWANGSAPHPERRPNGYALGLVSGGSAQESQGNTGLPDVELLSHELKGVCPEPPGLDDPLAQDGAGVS
Experimental: Ligand Binding Assay for Adenosine A2a Receptor
Ligand binding assay of adenosine A2a receptor was performed using plasma membrane of HEK293 cells containing human A2a adenosine receptor (PerkinElmer, RB-HA2a) and radioligand [^3H]CGS21680 (PerkinElmer, NET 1021). Assay was set up in 96-well polypropylene plate in total volume of 200 μL by sequentially adding 20 μL 1:20 diluted membrane, 130 μL assay buffer (50 mM Tris.HCl, pH7.4 10 mM MgCl2, 1 mM EDTA) containing [^3H] CGS21680, 50 μL diluted compound (4×) or vehicle control in assay buffer. Nonspecific binding was determined by […] NECA. Reaction was carried out at room temperature for 2 hours before filtering through 96-well GF/C filter plate pre-soaked in 50 mM Tris.HCl, pH7.4 containing 0.3% polyethylenimine. Plates were then washed 5 times with cold 50 mM Tris.HCl, pH7.4, dried and sealed at the bottom. Microscintillation fluid 30 μL was added to each well and the top sealed. Plates were counted on Packard Topcount for [^3H]. Data was analyzed in Microsoft Excel and GraphPad Prism programs. (Varani, K.; Gessi, S.; Dalpiaz, A.; Borea, P. A. British Journal of Pharmacology, 1996, 117, 1693)

[3] = biological target: T3, human adenosine A1 receptor (Homo sapiens, UniProt P30542); assay: Adenosine A1 Receptor Functional Assay (A1GAL2); type: cell-based; conditions: CHO-K1 cells, cAMP inducible beta-galactosidase reporter, 4 nM r-PIA/1 uM Forskolin challenge
T3 construct: expressed in transfected cells; host or cells: CHO-K1
T3 sequence (P30542 1-326): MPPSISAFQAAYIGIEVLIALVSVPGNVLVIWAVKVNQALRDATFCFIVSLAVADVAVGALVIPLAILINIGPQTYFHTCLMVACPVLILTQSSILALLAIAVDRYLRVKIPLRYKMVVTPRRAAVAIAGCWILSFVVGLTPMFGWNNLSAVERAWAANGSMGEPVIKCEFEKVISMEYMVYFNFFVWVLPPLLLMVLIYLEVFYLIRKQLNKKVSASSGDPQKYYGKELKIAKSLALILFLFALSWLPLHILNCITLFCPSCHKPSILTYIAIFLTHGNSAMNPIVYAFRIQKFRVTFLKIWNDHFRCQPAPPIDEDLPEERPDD
Procedure, shortened: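 CHO-K1 cells expressing the receptor with a cAMP-inducible β-galactosidase reporter were preincubated with compound (11-point curves) about 15 min at room temperature, then challenged with r-PIA (4 nM)/forskolin (1 µM) for 5.5–6 h at 37 °C. Lysates were read colorimetrically at 405 nm, and IC/EC50 was obtained by curve fitting.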

T1 sequence (P29274 whole entry): as the sequence (P29274 whole entry) above

SMILES | Ki [1] [nM] | Ki [2] [nM] | Ki [3] [nM]
Nc1nc(-c2ccco2)nc2sc(CN3CC[C@@H](F)C3)cc12 [Example 54, 6-(3-Fluoro-pyrrolidin-1-ylmethyl)-2-furan-2-yl-thieno[2,3-d]pyrimidin-4-ylamine] | 11.5 | 8.2 | 878
Nc1nc(-c2ccco2)nc2sc(CN3CCC(F)(F)CC3)cc12 [Example 56, 6-(4,4-Difluoro-piperidin-1-ylmethyl)-2-furan-2-yl-thieno[2,3-d]pyrimidin-4-ylamine] | 48.7 | 21 | 2230
Nc1nc(-c2ccco2)nc2sc(CN3CCCC(F)(F)C3)cc12 [Example 57, 6-(3,3-Difluoro-piperidin-1-ylmethyl)-2-furan-2-yl-thieno[2,3-d]pyrimidin-4-ylamine] | 6.62 | 8.4 | 294
N#Cc1cccc(-c2nc(N)c3cc(CN4CCCC(F)(F)C4)sc3n2)c1 [Example 62, 3-[4-Amino-6-(3,3-difluoro-piperidin-1-ylmethyl)-thieno[2,3-d]pyrimidin-2-yl]-benzonitrile] | 50.3 | 384 | 1180
N#Cc1ccc(-c2nc(N)c3cc(CN4CC=CCC4)sc3n2)cc1 [Example 63, 4-[4-Amino-6-(3,6-dihydro-2H-pyridin-1-ylmethyl)-thieno[2,3-d]pyrimidin-2-yl]-benzonitrile] | 178 | 150 | 1630
N#Cc1cccc(-c2nc(N)c3cc(CN4CC=CC4)sc3n2)c1 [Example 64, 3-[4-Amino-6-(2,5-dihydro-pyrrol-1-ylmethyl)-thieno[2,3-d]pyrimidin-2-yl]-benzonitrile] | 83.5 | 77 | 2070
N#Cc1cccc(-c2nc(N)c3cc(CN4CCCC4)sc3n2)c1 [Example 65, 3-(4-Amino-6-pyrrolidin-1-ylmethyl-thieno[2,3-d]pyrimidin-2-yl)-benzonitrile] | > 10000 | 41.8 | 129
N#Cc1cccc(-c2nc(N)c3cc(CN4CC=CCC4)sc3n2)c1 [Example 68, 3-[4-Amino-6-(3,6-dihydro-2H-pyridin-1-ylmethyl)-thieno[2,3-d]pyrimidin-2-yl]-benzonitrile] | 13.3 | 378 | 212
Nc1nc(-c2cocn2)nc2sc(CN3CC=CC3)cc12 [Example 69, 6-(2,5-Dihydro-pyrrol-1-ylmethyl)-2-oxazol-4-yl-thieno[2,3-d]pyrimidin-4-ylamine] | 238 | 1020 | 3890
Nc1nc(-c2cocn2)nc2sc(CN3CC=CCC3)cc12 [Example 70, 6-(3,6-Dihydro-2H-pyridin-1-ylmethyl)-2-oxazol-4-yl-thieno[2,3-d]pyrimidin-4-ylamine] | 240 | 393 | 2960
N#Cc1ccccc1-c1nc(N)c2cc(CN3CCC(F)CC3)sc2n1 [Example 73, 2-[4-Amino-6-(4-fluoro-piperidin-1-ylmethyl)-thieno[2,3-d]pyrimidin-2-yl]-benzonitrile] | 1030 | 2020 | 5050
N#Cc1cccc(-c2nc(N)c3cc(CN4CCOCC4)sc3n2)c1 [Example 74, 3-(4-Amino-6-morpholin-4-ylmethyl-thieno[2,3-d]pyrimidin-2-yl)-benzonitrile] | 35.9 | 93.2 | 1010
N#Cc1cccc(-c2nc(N)c3cc(CN4C5CCC4CC5)sc3n2)c1 [Example 77, 3-[4-Amino-6-(7-aza-bicyclo[2.2.1]hept-7-ylmethyl)-thieno[2,3-d]pyrimidin-2-yl]-benzonitrile] | 95 | 74.9 | 2170
Cn1cccc1-c1nc(N)c2cc(CN3CCC(F)CC3)sc2n1 [Example 78, 6-(4-Fluoro-piperidin-1-ylmethyl)-2-(1-methyl-1H-pyrrol-2-yl)-thieno[2,3-d]pyrimidin-4-ylamine] | 634 | 733 | 1600

Reference: US20100093702A1, “METHYLENE AMINES OF THIENO[2,3-d]PYRIMIDINE AND THEIR USE AS ADENOSINE A2a RECEPTOR ANTAGONISTS” (priority 2008, published 2010)
